# In article PMC5216877, “Exploring conformational equilibria of a heterodimeric ABC transporter” (eLife, 2017):
# Like-named read-outs stand apart in the source and are kept apart here. Marks after values point to notes of the source that are not given here.
# Assays:
# [1] = tested on: TM287/288; experiment: DEER two-Gaussian fit of IF/OF populations, wildtype TM287/288; set-up: species or system Thermotoga maritima; conditions: estimated errors 10%
# Protocol: (§1) All nucleotides and nucleotide analogs used in this study were added at saturating conditions well above their Ki values (Table 2). […] Therefore, the IF/OF fractions detected in the sample reflect the average life time that the nucleotide-bound transporter spends in either conformation. To rank the nucleotides in terms of their ability to support the transition to the OF conformation, we used three representative pairs in the wildtype transporter and the E-to-Q mutant: one in the extracellular region (50^TM287/271^TM287), one in the intracellular region (131^TM288/248^TM288) of the TMDs, and one in the NBDs (460^TM287/363^TM288) for which the distance peaks corresponding to the two states were distinguishable. A two-Gaussian fit of the DEER traces was performed to obtain the area of the corresponding IF and OF distance peaks (Figure 5—source data 1). The rank of nucleotides with respect to increasing fractions of the OF populations (Figure 5A) was: ADP-Mg ≈ AMP-PNP-Mg < ATP-EDTA < ATPγS-Mg < ATP-Mg < ATP-Vi-Mg. The order is similar for the wildtype and E-to-Q mutant transporter. However, the OF state is in general more populated in the E-to-Q mutant, which is best explained by an alteration of the energy profile caused by the mutation. This notion is best appreciated for ATP-EDTA and ATP-Mg, which could trigger an almost complete switch in the molecular ensemble of the E-to-Q mutant (Figure 5B).
# (§2) The labeling efficiency of the double cysteine mutants of the transporters solubilized in detergent was measured at 25°C using an X-band Miniscope 400 EPR spectrometer (Magnettech by Freiberg Instrument). Samples were loaded into glass capillaries with the inner diameter of 0.9 mm and spectra were measured with 14 mT field sweep, 0.15 mT modulation amplitude, 2.5 mW microwave power. The calculated spin labeling efficiencies of the twelve mutants ranged between 70–90% (the second integral of the EPR spectra was calculated with the software available at spintoolbox.com). The high degree of labeling is correlated with the 0.3–0.4 modulation depths of all Q-band DEER traces presented. For DEER measurements, 10% v/v D8- glycerol was added prior to snap freezing. The range of final protein concentrations was 12 to 41 µM. 40 µL of sample were loaded in quartz tubes with 3 mm outer diameter. If not stated differently, samples were incubated at 25°C for 10 min (TM287/288 and MsbA) or 15 min (BmrCD) and snap frozen in liquid nitrogen. To study the effect of high physiological temperatures on the frozen dynamics of the transporter, samples were loaded in the quartz tubes, incubated for 3 min at 80°C on a heat block and snap frozen in a mixture of isopentane and liquid nitrogen to minimize the freezing time. […] The nucleotide analogs AMP-PNP-Mg and ATPγS-Mg (2.5 mM) were also prepared in the presence of 2.5 mM MgCl2. In case of ADP-Mg, 2.5 mM ADP and 2.5 mM MgCl2 were added.
# (§3) Double electron-electron resonance (DEER) measurements were performed at 50 K on a Bruker ELEXSYS E580Q-AWG (arbitrary wave generator) dedicated pulse Q-band spectrometer equipped with a 150 W TWT amplifier. A 4-pulse DEER sequence with rectangular, non-selective observer and pump pulses of 14 or 16 ns length (depending on the available B1 at the sample) with 100 MHz frequency separation was used ([Polyhach et al., 2012]). Due to the coherent nature of the AWG generated pulses, a four-step phase cycling (0 – π/2 - π – 3/2π) of the pump π pulse was performed to remove unwanted effects of running echoes from the DEER trace. The evaluation of the DEER data was performed using DeerAnalysis2015 ([Jeschke et al., 2006]). The background of the primary DEER traces was corrected using stretched exponential functions with homogeneous dimensions of 1.5 to 3 for different samples. A model-free Tikhonov regularization was used to extract distance distributions from the background corrected form factors. […]
# [2] = tested on: TM287/288 E517Q; experiment: DEER two-Gaussian fit of IF/OF populations, E-to-Q mutant of TM287/288; set-up: species or system Thermotoga maritima; conditions: estimated errors 10%
# Protocol: as §1, §2, §3
# [3] = target: T1, TM287/288 (Thermotoga maritima, UniProt Q9WYC3+Q9WYC4, C28S/C496S/C519S/C558S/C73S); experiment: ATPase activity of detergent-purified wildtype TM287/288 (molybdate/malachite green phosphate detection); assay type: biochemical; conditions: for Km: read-out: Km for ATP
# [4] = tested on: MsbA; set-up: method as in Moeller et al., 2015; conditions: single particle EM; ref Moeller et al., 2015; cited from earlier work
# [5] = target: T2, BmrCD (Bacillus subtilis, UniProt O07549+O07550, C154A/C256A/C351A); experiment: Inhibition of ATPase activity of BmrCD by nucleotide analogs; assay type: biochemical; conditions: BmrCD, 25°C
# T2 construct: made in house; host or cells: E. coli MC1061
# Protocol: (§4) in which f corresponds to the ATPase activity at the respective inhibitor concentration divided by the ATPase activity in the absence of inhibitor normalized to 100%, y0 corresponds to the residual activity at infinite inhibitor concentration, a corresponds to the maximal degree of inhibition (a+y0=100%) and x corresponds to the inhibitor concentration.
# (§5) Ki values were calculated according to the formula Ki=IC50/(1+[S]/Km)
# (§6) IC50 and Km values were obtained from data fitting as outlined above.
# (§7) Standard errors for the Ki values were calculated by error propagation: σKi = (Km/Km+[S])^2 σIC502+ ([S]IC50/(Km+[S])^2)^2 σKm2
# (§8) in which the σIC50 and σKm are standard errors obtained from data fitting in SigmaPlot and σKi is the standard error for Ki .
# [6] = target: T1, TM287/288; experiment: Inhibition of ATPase activity of TM287/288 by vanadate and nucleotides; assay type: biochemical; conditions: for IC50: 500 µM ATP, read-out: IC50; for Ki: calculated from IC50 and Km, read-out: Ki
# Protocol: Nucleotide binding and hydrolysis follow a complex mechanism in heterodimeric ABC exporters, due to the existence of a degenerate and a consensus site in the NBDs. […] Using the relation IC50=Ki(1+[S]/Km), Ki values for the respective nucleotides were determined (Table 2). […] It is well established that ATPγS is slowly hydrolyzed by ATPases, as for example the F1Fo-ATPase ([Turina and Capaldi, 1994]). […] It is reasonable to assume that TM287/288 is as well capable of slow ATPγS hydrolysis. In addition, we tested whether TM287/288 hydrolyzes AMP-PNP. In contrast to ATPγS, hydrolysis of AMP-PNP releases Pi, which can be detected by the molybdate/malachite green method.
# as §4, §5, §6, §7, §8
# [7] = tested on: TM287/288_E517Q^TM288; experiment: Residual ATPase activity of E-to-Q mutant of TM287/288 in detergent; assay type: biochemical, Thermotoga maritima; conditions: E-to-Q mutant of TM287/288, 25°C
# Protocol: (§9) Incubation with buffers containing the same nucleotide concentration without protein served for background subtraction in these assays.
# [8] = tested on: MsbA; experiment: ATPase activity of detergent-purified MsbA; conditions: ATP-Mg, 30°C
# [9] = tested on: Spin-labeled TM287/288; experiment: ATPase activity of spin-labeled TM287/288 mutants in detergent; conditions: 50°C, relative to internal wildtype control
# [10] = target: T2, BmrCD; experiment: ATPase activity of detergent-purified wildtype BmrCD; assay type: biochemical; conditions: 25°C
# [11] = target: T3, BmrCD_E592Q^BmrD (Bacillus subtilis, UniProt O07549+O07550, C154A/C256A/C351A/E592Q); experiment: Residual ATPase activity of E-to-Q mutant of BmrCD in detergent; assay type: biochemical; conditions: 25°C
# T3 construct: made in house; host or cells: E. coli MC1061
# Protocol: as §9
# [12] = spin-labeled pair 50^TM287-271^TM287 WT
# [13] = spin-labeled pair 131^TM288-248^TM288 WT
# [14] = spin-labeled pair 460^TM287-363^TM288 WT
# [15] = spin-labeled pair 50^TM287-271^TM287 E517Q
# [16] = spin-labeled pair 131^TM288-248^TM288 E517Q
# [17] = spin-labeled pair 460^TM287-363^TM288 E517Q
# [18] = wildtype TM287/288, AMP-PNP-Mg as nucleotide, 25°C [sic], detergent
# [19] = wildtype BmrCD, ATP-Mg, detergent
# [20] = wildtype TM287/288, ATP-Mg, 25°C, detergent
# [21] = wildtype TM287/288, ATP-Mg, 50°C, detergent
# [22] = BmrCD E592Q^BmrD, ATP-Mg, detergent
# T3 sequence (O07550 whole entry): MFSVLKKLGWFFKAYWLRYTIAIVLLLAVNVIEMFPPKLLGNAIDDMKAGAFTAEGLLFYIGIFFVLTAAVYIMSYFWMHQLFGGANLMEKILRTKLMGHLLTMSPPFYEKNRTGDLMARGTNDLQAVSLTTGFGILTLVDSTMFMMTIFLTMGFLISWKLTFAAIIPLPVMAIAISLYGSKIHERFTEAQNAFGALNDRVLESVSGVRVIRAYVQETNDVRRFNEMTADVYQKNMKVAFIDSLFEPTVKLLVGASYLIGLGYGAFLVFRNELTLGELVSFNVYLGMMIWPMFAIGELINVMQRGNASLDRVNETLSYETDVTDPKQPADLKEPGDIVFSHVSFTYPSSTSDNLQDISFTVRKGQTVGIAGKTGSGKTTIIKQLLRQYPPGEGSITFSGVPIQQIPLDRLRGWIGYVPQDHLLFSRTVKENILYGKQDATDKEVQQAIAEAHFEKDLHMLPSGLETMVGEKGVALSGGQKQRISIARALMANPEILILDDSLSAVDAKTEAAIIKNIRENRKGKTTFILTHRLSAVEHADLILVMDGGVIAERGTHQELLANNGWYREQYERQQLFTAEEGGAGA
# T3 sequence (O07549 whole entry C154A/C256A/C351A/E592Q): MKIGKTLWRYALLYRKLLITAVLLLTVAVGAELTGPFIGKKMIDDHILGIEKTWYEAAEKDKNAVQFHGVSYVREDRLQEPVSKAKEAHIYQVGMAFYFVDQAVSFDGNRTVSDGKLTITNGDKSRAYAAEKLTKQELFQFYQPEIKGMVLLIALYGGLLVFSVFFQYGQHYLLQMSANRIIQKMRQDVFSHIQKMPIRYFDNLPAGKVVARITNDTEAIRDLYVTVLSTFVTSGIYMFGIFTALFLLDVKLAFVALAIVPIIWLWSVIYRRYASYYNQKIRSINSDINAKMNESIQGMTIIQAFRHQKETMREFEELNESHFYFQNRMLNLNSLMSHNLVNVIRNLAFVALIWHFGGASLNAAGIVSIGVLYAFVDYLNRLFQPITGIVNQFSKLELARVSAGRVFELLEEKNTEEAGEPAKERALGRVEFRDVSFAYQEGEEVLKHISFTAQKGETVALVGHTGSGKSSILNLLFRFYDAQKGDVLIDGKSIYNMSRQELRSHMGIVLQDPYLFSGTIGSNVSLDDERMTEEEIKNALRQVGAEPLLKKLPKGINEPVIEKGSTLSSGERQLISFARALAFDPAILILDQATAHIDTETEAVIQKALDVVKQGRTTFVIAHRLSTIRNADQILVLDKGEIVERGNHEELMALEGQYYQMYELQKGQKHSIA
# T2 sequence (O07550 whole entry): as the sequence (O07550 whole entry) above
# T2 sequence (O07549 whole entry C154A/C256A/C351A): as the sequence (O07549 whole entry C154A/C256A/C351A/E592Q) above, with Q592E counted along it
smiles,measurement,setting,value
Nc1ncnc2c1ncn2[C@@H]1O[C@H](COP(=O)(O)OP(=O)(O)NP(=O)(O)O)[C@@H](O)[C@H]1O [AMP-PNP],IF frac,[1]; [12],85.4%
same,OF frac,[1]; [12],14.6%
same,IF frac,[1]; [13],100%
same,OF frac,[1]; [13],0%
same,IF frac,[1]; [14],90.7%
same,OF frac,[1]; [14],9.3%
same,IF frac,[2]; [15],64.9%
same,OF frac,[2]; [15],35.1%
same,IF frac,[2]; [16],100%
same,OF frac,[2]; [16],0%
same,IF frac,[2]; [17],65.8%
same,OF frac,[2]; [17],34.2%
same,cleavage of AMP-PNP (sensitivity of assay),"[3]; wildtype TM287/288, AMP-PNP as nucleotide",< 0.01 Pi min^−1
same,ATPase activity (hydrolysis of AMP-PNP),[3]; [18],<0.1 nmol Pi/min/mg protein
same,"ATPase activity, % of wildtype (hydrolysis of AMP-PNP)",[3]; [18],<0.005%
same,Turnover per transporter (hydrolysis of AMP-PNP),[3]; [18],<0.01 min⁻¹
same,fraction of outward-facing MsbA,[4],41%
same,IC50,"[5]; 2500 µM ATP, read-out: IC50",174 ± 24 µM
same,Ki,"[5]; calculated from IC50 and Km, read-out: Ki",21 ± 3.2 µM
same,IC50,"[6]; TM287/288, 25°C",179 ± 75 µM
same,Ki,"[6]; TM287/288, 25°C",1.17 ± 0.51 µM
same,IC50,"[6]; TM287/288, 50°C",16.1 ± 1.6 µM
same,Ki,"[6]; TM287/288, 50°C",0.246 ± 0.042 µM
Nc1ncnc2c1ncn2[C@@H]1O[C@H](COP(=O)(O)OP(=O)(O)OP(=O)(O)O)[C@@H](O)[C@H]1O [ATP],ATPase turnover rate,[7],0.022 ATP min^−1
same,IF frac,[1]; [12],36.7%
same,OF frac,[1]; [12],63.3%
same,IF frac,[1]; [13],56.8%
same,OF frac,[1]; [13],43.2%
same,IF frac,[1]; [14],25.7%
same,OF frac,[1]; [14],74.3%
same,"ATPase activity, % of wildtype",[8]; MsbA 561^MsbA,90.4%
same,Turnover per transporter,[8]; MsbA 561^MsbA,16.6 min⁻¹
same,ATPase activity,[8]; wildtype MsbA,135 ± 9 nmol Pi/min/mg protein
same,Turnover per transporter,[8]; wildtype MsbA,18.4 min⁻¹
same,"ATPase activity, % of wildtype","[9]; spin-labeled 131^TM288/248^TM288, ATP-Mg",156* %
same,"ATPase activity, % of wildtype","[9]; spin-labeled 150^TM287/295^TM288, ATP-Mg",112* %
same,"ATPase activity, % of wildtype","[9]; spin-labeled 231^TM287/304^TM287, ATP-Mg",146* %
same,"ATPase activity, % of wildtype","[9]; spin-labeled 350^TM287/475^TM288, ATP-Mg",193* %
same,"ATPase activity, % of wildtype","[9]; spin-labeled 460^TM287/363^TM288, ATP-Mg",212* %
same,Km,"[10]; read-out: Km for ATP, BmrCD",343 ± 24 µM
same,ATPase activity,[10]; [19],22.9 ± 0.5 nmol Pi/min/mg protein
same,Turnover per transporter,[10]; [19],3.24 min⁻¹
same,IF frac,[2]; [15],5.79%
same,OF frac,[2]; [15],94.21%
same,IF frac,[2]; [16],24.9%
same,OF frac,[2]; [16],75.1%
same,IF frac,[2]; [17],13%
same,OF frac,[2]; [17],87%
same,Km,"[3]; TM287/288, 25°C",3.27 ± 0.42 µM
same,Km,"[3]; TM287/288, 50°C",7.78 ± 1.1 µM
same,turnover rate,"[3]; wildtype TM287/288, ATP-Mg, 25°C",11 ATP min^−1
same,ATPase activity,[3]; [20],86.1 ± 2.5 nmol Pi/min/mg protein
same,Turnover per transporter,[3]; [20],11.4 min⁻¹
same,ATPase activity,[3]; [21],2141 ± 67 nmol Pi/min/mg protein
same,Turnover per transporter,[3]; [21],284 min⁻¹
same,ATPase activity,[11]; [22],0.633 ± 0.053 nmol Pi/min/mg protein
same,"ATPase activity, % of wildtype",[11]; [22],2.76%
same,Turnover per transporter,[11]; [22],0.0896 min⁻¹
same,turnover rate,[11]; BmrCD carrying the E-to-Q mutation,0.09 ATP min^−1
